Columns and labels:
NCI-H2228 [1] = assay: Antiproliferative activity against human NCI-H2228 cells by MTT assay
KARPAS-299 = assay: Antiproliferative activity against human KARPAS-299 cells by MTT assay
A549 = assay: cells; details: Homo sapiens
Description: Antiproliferative activity against human A549 cells by MTT assay

[2] = target: ALK tyrosine kinase receptor (Homo sapiens, UniProt Q9UM73); assay: Inhibition of wild type ALK (unknown origin)
[3] = target: ALK tyrosine kinase receptor (Homo sapiens, UniProt Q9UM73, L1196M); assay: Inhibition of ALK L1196M mutant (unknown origin)
Sequence of ALK tyrosine kinase receptor (Homo sapiens, UniProt Q9UM73, L1196M) (Q9UM73 19-1620 L1196M limits assumed): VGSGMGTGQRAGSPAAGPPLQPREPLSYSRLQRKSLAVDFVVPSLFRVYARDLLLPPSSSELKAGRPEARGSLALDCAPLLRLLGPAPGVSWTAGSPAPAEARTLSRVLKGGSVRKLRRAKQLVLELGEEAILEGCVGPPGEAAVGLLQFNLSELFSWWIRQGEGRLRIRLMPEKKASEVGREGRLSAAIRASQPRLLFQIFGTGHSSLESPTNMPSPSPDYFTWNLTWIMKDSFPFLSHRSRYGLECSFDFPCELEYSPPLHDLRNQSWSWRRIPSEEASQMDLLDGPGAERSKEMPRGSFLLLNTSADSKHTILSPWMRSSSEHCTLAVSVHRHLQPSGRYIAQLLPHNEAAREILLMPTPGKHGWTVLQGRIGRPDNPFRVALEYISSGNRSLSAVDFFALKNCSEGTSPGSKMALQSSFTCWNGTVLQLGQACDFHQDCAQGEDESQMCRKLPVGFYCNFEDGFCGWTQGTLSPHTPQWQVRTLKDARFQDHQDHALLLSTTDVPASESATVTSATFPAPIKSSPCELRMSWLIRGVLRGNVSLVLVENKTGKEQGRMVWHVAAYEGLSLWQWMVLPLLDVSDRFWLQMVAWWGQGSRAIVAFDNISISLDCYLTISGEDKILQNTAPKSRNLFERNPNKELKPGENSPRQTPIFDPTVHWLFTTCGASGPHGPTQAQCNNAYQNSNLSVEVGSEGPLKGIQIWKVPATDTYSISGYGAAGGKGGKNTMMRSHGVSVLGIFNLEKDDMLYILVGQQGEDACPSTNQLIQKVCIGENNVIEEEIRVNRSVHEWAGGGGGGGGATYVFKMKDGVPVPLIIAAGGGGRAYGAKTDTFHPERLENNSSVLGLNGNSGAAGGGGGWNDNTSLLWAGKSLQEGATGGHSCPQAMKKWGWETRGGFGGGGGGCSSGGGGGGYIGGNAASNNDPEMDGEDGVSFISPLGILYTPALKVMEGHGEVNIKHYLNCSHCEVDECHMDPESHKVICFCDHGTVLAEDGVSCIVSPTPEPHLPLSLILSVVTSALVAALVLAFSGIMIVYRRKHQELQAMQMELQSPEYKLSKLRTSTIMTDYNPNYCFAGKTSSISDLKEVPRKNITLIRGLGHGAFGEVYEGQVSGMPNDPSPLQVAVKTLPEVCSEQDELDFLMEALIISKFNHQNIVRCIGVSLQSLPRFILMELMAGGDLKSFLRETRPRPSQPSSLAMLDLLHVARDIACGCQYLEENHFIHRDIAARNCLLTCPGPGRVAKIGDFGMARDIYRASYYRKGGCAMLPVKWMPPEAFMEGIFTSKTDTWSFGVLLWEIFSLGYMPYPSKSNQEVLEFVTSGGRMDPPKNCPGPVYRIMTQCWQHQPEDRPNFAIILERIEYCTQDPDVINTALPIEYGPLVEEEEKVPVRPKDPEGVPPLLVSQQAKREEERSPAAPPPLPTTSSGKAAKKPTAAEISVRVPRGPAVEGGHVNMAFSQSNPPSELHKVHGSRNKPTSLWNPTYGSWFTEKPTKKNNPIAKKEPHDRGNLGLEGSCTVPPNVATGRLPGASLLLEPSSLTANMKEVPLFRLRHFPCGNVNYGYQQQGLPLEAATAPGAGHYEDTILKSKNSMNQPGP

[4] = target: Epidermal growth factor receptor (Homo sapiens, UniProt P00533); assay: Inhibition of EGFR (unknown origin)
Sequence of Epidermal growth factor receptor (P00533 whole entry): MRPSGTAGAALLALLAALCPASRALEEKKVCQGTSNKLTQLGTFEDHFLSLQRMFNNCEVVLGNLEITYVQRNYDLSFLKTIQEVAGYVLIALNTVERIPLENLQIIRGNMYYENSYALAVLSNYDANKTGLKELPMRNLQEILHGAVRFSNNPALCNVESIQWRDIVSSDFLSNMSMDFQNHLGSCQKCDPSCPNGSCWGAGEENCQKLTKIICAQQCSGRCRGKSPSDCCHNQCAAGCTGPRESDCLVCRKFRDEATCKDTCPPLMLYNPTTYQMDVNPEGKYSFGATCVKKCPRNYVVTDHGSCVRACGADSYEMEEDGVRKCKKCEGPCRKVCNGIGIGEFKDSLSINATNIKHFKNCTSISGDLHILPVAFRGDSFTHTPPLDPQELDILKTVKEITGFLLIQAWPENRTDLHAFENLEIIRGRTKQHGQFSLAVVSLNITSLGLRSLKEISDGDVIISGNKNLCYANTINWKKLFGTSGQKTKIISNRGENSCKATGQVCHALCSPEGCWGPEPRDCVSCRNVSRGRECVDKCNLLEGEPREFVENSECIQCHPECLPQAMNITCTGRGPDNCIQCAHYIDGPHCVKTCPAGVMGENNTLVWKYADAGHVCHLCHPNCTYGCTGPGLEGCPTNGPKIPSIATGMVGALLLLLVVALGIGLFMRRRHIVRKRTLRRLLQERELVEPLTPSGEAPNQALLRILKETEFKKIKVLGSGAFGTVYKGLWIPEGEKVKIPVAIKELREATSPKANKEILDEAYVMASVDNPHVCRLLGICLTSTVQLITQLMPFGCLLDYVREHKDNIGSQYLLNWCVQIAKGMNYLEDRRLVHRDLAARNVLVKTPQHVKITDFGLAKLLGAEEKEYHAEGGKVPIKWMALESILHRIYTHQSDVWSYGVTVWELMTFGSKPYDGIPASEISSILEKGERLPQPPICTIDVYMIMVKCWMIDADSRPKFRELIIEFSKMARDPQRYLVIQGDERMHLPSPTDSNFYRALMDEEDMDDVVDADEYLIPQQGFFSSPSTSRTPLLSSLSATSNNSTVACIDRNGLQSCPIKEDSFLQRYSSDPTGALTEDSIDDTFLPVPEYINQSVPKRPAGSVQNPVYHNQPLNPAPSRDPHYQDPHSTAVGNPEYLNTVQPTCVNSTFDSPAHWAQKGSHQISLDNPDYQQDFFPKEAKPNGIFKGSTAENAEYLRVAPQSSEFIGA

[5] = target: Hepatocyte growth factor receptor (Homo sapiens, UniProt P08581); assay: Inhibition of c-MET (unknown origin)
Sequence of Hepatocyte growth factor receptor (P08581 whole entry, the tested form may be a part): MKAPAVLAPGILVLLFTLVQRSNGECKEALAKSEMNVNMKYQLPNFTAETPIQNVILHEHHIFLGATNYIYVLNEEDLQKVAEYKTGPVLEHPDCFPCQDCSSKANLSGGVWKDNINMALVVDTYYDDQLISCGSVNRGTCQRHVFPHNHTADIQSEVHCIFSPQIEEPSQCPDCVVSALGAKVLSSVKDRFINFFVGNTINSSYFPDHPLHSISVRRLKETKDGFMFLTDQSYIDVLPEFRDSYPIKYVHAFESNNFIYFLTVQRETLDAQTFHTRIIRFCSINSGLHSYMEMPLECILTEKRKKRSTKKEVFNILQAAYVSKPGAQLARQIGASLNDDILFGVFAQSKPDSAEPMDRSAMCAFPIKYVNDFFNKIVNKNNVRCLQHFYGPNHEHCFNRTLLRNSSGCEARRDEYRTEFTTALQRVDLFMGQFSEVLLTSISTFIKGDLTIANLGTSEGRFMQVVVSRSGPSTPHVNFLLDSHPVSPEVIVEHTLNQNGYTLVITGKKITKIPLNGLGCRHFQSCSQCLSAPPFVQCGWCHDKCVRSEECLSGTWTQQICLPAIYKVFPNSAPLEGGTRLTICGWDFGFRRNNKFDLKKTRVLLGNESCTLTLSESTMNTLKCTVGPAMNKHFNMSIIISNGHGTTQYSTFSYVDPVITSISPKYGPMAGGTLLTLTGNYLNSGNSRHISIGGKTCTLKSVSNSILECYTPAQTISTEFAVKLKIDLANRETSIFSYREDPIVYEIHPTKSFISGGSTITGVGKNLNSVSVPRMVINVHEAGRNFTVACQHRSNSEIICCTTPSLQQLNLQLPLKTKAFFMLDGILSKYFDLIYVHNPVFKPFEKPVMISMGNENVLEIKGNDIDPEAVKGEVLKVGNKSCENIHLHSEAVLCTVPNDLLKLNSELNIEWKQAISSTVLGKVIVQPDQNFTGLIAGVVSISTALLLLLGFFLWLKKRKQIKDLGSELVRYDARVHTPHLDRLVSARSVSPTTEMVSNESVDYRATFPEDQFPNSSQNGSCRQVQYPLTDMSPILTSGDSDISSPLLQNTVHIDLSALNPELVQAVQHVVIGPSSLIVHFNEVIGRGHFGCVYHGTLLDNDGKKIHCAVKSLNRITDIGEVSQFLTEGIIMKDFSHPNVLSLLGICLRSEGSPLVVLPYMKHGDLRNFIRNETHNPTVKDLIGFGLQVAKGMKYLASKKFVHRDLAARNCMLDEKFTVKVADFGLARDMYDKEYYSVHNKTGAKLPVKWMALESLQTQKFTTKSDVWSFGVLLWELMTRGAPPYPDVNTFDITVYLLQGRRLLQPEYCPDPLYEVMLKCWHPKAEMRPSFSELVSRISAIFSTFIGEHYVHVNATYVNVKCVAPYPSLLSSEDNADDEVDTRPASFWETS

NCI-H2228 [6] = assay: Induction of apoptosis in human NCI-H2228 cells assessed as nuclear fragmentation incubated for 24 hrs by Hoechst 33342 staining based fluorescence microscopy assay; assay type: functional, cell-based; details: dose 25-100 nM
NCI-H2228 [7] = assay: Inhibition of colony formation in human NCI-H2228 cells at 1 uM incubated for 24 hrs; assay type: functional
NCI-H2228 [8] = assay: Inhibition of colony formation in human NCI-H2228 cells incubated for 24 hrs; assay type: functional, cell-based; details: dose 0.25-1 µM
NCI-H2228 [9] = assay: Induction of apoptosis in human NCI-H2228 cells assessed as nuclear contraction incubated for 24 hrs by Hoechst 33342 staining based fluorescence microscopy assay; assay type: functional, cell-based; details: dose 25-100 nM
NCI-H2228 [10] = assay: Antimigratory activity against human NCI-H2228 cells incubated for 48 hrs by wound healing assay; assay type: functional, cell-based; details: dose 12.5-50 nM

SMILES | IC50 (NCI-H2228 [1]) [nM] | IC50 (KARPAS-299) [nM] | IC50 (A549) [nM] | also measured
CN(C)C(=O)c1cc(NCc2cn(-c3cccc(NC(=O)c4cc(F)cc(F)c4)c3)nn2)ccc1NCCO | 1790 | 492 | 7990 | –
CN(C)C(=O)c1cc(NCc2cn(-c3cccc(NC(=O)c4cc(F)cc(F)c4)c3)nn2)ccc1N1CCCCC1 | 760 | 157 | 4120 | –
CNCc1cn(-c2cccc(NC(=O)c3cc(F)cc(F)c3)c2)nn1 | – | – | – | IC50 [2]: 270 nM
O=C(Nc1cccc(-n2cc(CNc3ccc(N4CCCCC4)c(C(=O)N4CCCCC4)c3)nn2)c1)c1cc(F)cc(F)c1 | 1020 | 272 | > 10000 | –
O=C(Nc1cccc(-n2cc(CNc3ccc(NCCO)c(C(=O)N4CCCCC4)c3)nn2)c1)c1cc(F)cc(F)c1 | 2520 | 602 | > 10000 | –
O=C(Nc1cccc(-n2cc(CNc3ccc(N4CCC(O)CC4)c(C(=O)N4CCCCC4)c3)nn2)c1)c1cc(F)cc(F)c1 | 192 | 57 | > 10000 | IC50 [3]: 17.6 nM; IC50 [4]: > 1000 nM; IC50 [5]: > 1000 nM; IC50 [2]: 8.6 nM
CN(C)c1ccc(NCc2cn(-c3cccc(NC(=O)c4cc(F)cc(F)c4)c3)nn2)cc1C(=O)N1CCOCC1 | 7890 | 1760 | > 10000 | –
O=C(Nc1cccc(-n2cc(CNc3ccc(N4CC(O)C4)c(C(=O)N4CCCCC4)c3)nn2)c1)c1cc(F)cc(F)c1 | 193 | 55 | > 10000 | IC50 [3]: 12.9 nM; IC50 [4]: > 1000 nM; IC50 [5]: 796 nM; IC50 [2]: 5.8 nM
CC1CCN(c2ccc(NCc3cn(-c4cccc(NC(=O)c5cc(F)cc(F)c5)c4)nn3)cc2C(=O)N2CCOCC2)CC1 | > 10000 | 2310 | > 10000 | –
CN1CCN(c2ccc(NCc3cn(-c4cccc(NC(=O)c5cc(F)cc(F)c5)c4)nn3)cc2C(=O)N(C)C)CC1 | 169 | 55 | 3750 | –
O=C(Nc1cccc(-n2cc(CNc3ccc(N4CCCCC4)c(C(=O)N4CCCC4)c3)nn2)c1)c1cc(F)cc(F)c1 | 991 | 232 | > 10000 | –
CN1CCN(c2ccc(NCc3cn(-c4cccc(NC(=O)c5cc(F)cc(F)c5)c4)nn3)cc2C(=O)N2CCCC2)CC1 | 362 | 79 | > 10000 | –
O=C(Nc1cccc(-n2cc(CNc3ccc(N4CCC(O)CC4)c(C(=O)N4CCOCC4)c3)nn2)c1)c1cc(F)cc(F)c1 | 1860 | 425 | > 10000 | –
CN(C)c1ccc(NCc2cn(-c3cccc(NC(=O)c4cc(F)cc(F)c4)c3)nn2)cc1C(=O)N1CCCCC1 | 2800 | 589 | > 10000 | –
CC1CCN(c2ccc(NCc3cn(-c4cccc(NC(=O)c5cc(F)cc(F)c5)c4)nn3)cc2C(=O)N2CCCCC2)CC1 | 1030 | 240 | > 10000 | –
O=C(Nc1cccc(-n2cc(CNc3ccc(N4CCC(O)CC4)c(C(=O)N4CCCC4)c3)nn2)c1)c1cc(F)cc(F)c1 | 175 | 51 | > 10000 | Activity (NCI-H2228 [6]): Dose-Dependent Effect; IC50 [3]: 6.8 nM; inhibition at 1 µM (NCI-H2228 [7]): 100%; IC50 [4]: > 1000 nM; inhibition (NCI-H2228 [8]): Dose-Dependent Effect; Activity (NCI-H2228 [9]): Dose-Dependent Effect; IC50 [5]: > 1000 nM; Activity (NCI-H2228 [10]): Dose-Dependent Effect; IC50 [2]: 3.7 nM
CN1CCN(c2ccc(NCc3cn(-c4cccc(NC(=O)c5cc(F)cc(F)c5)c4)nn3)cc2C(=O)N2CCOCC2)CC1 | 1980 | 452 | > 10000 | –
CC1CCN(c2ccc(NCc3cn(-c4cccc(NC(=O)c5cc(F)cc(F)c5)c4)nn3)cc2C(=O)N2CCCC2)CC1 | 995 | 249 | > 10000 | –
O=C(Nc1cccc(-n2cc(CNc3ccc(NCCO)c(C(=O)N4CCOCC4)c3)nn2)c1)c1cc(F)cc(F)c1 | 6940 | 1540 | > 10000 | –
CN(C)C(=O)c1cc(NCc2cn(-c3cccc(NC(=O)c4cc(F)cc(F)c4)c3)nn2)ccc1N(C)C | 1610 | 356 | 4930 | –
CN(C)C(=O)c1cc(NCc2cn(-c3cccc(NC(=O)c4cc(F)cc(F)c4)c3)nn2)ccc1N1CCC(O)CC1 | 198 | 62 | 2050 | –
CN1CCN(c2ccc(NCc3cn(-c4cccc(NC(=O)c5cc(F)cc(F)c5)c4)nn3)cc2)CC1 | – | – | – | IC50 [2]: 55 nM
CC1CCN(c2ccc(NCc3cn(-c4cccc(NC(=O)c5cc(F)cc(F)c5)c4)nn3)cc2C(=O)N(C)C)CC1 | 881 | 191 | 5790 | –
O=C(Nc1cccc(-n2cc(CNc3ccc(N4CCCCC4)c(C(=O)N4CCOCC4)c3)nn2)c1)c1cc(F)cc(F)c1 | 7520 | 1910 | > 10000 | –
O=C(Nc1cccc(-n2cc(CNc3ccc(N4CC(O)C4)c(C(=O)N4CCOCC4)c3)nn2)c1)c1cc(F)cc(F)c1 | 1610 | 594 | > 10000 | –
CN1CCN(c2ccc(NCc3cn(-c4cccc(NC(=O)c5cc(F)cc(F)c5)c4)nn3)cc2C(=O)N2CCCCC2)CC1 | 387 | 91 | > 10000 | –
CN(C)c1ccc(NCc2cn(-c3cccc(NC(=O)c4cc(F)cc(F)c4)c3)nn2)cc1C(=O)N1CCCC1 | 2690 | 511 | > 10000 | –

— ChEMBL document CHEMBL5223127, “Fragment-based discovery of novel phenyltriazolyl derivatives as allosteric type-I1/2 ALK inhibitors with promising antitumor effects” (Bioorg Med Chem Lett, 2022)
